This experiment relates to Lasiodiplodia theobromae. Put plainly: Antifungal activity against Lasiodiplodia theobromae OCS71 assessed as inhibition of mycelial growth at 100 ug/ml after 4 days by fungicide disk assay. The experiment is classed as functional. The settings on record: 96 h.

In the case of `COc1cc(O)c(C)c2c1[C@@H](OC)O[C@@H](C)C2`, the inhibition at 100 µg/mL came out at 76%.

Turning to `COc1cc(O)c(C)c2c1CO[C@@H](C)C2`, the inhibition at 100 µg/mL is below 10%.

As for `COC1=CC(=O)C(C)=C2C[C@H](C)OC=C12`, the inhibition at 100 µg/mL came to 69%.

For the compound `CCOC1O[C@@H](C)Cc2c(C)c(O)cc(OC)c21` (some centres undefined), the inhibition at 100 µg/mL was 74%.

Usually inhibition stands for the share of the control response that was lost under treatment.
